Reference: patent publication US11851406B2, “Positive allosteric modulators of the muscarinic acetylcholine receptor M1” (Vanderbilt University, priority 2018, dated 2023)

Key:
human mAChR M1 [1] = biological target: T1, human mAChR M1 (Homo sapiens, UniProt P11229); test: mAChR M1 cell-based functional assay (calcium mobilization), PAM activity: increase in the EC20 acetylcholine response; conditions: CHO-K1 cells expressing hM1; calcium flux (Fluo-4); potentiation of EC20 acetylcholine response
T1 sequence (P11229 1-460): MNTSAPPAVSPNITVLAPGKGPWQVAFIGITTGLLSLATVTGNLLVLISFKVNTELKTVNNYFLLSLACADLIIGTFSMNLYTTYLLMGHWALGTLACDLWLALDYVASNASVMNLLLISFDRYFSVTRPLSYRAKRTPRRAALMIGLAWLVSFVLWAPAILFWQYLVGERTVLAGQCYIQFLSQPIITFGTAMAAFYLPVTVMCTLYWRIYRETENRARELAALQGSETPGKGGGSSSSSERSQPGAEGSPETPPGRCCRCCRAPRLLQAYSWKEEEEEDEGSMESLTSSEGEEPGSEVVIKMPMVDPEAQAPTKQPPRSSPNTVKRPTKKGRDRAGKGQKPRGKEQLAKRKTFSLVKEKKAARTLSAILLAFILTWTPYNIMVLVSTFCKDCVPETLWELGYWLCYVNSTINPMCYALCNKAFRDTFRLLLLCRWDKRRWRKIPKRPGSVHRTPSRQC
Source text: (§1) Chinese hamster ovary (CHO-K1) cells stably expressing rat (r)M1 were purchased from the American Type Culture Collection and cultured according to their indicated protocol. CHO cells stably expressing human (h)M2, hM3, and hM5 were described previously (Levey, et al., 1991); hM1 and hM4 cDNAs were purchased from Missouri S&T cDNA Resource; rM4 cDNA was provided by T. I. Bonner (National Institutes of Health, Bethesda, Md.). rM2 and rM3 were cloned from a rat brain cDNA library and sequence verified. hM1, rM2, rM3, hM4, and rM4 cDNAs were used to stably transfect CHO-K1 cells purchased from the American Type Culture Collection using Lipofectamine2000. To make stable rM2, hM2, rM3, hM4, and rM4 cell lines for use in calcium mobilization assays, these cells also were stably transfected with a chimeric G-protein (Gqi5) (provided by B. R. Conklin, University of California, San Francisco) using Lipofectamine 2000. rM1, hM1, rM3, hM3, rM5, and hM5 cells were grown in Ham's F-12 medium containing 10% heat-inactivated fetal bovine serum (FBS), 20 mM HEPES, and 50 μg/mL G418 sulfate. rM2-Gqi5, hM2-Gqi5, and hM4-Gqi5 cells were grown in the same medium also containing 500 μg/mL Hygromycin B. Stable rM4-Gqi5 cells were grown in DMEM containing 10% heat-inactivated FBS, 20 mM HEPES, 400 μg/mL G418 sulfate, and 500 μg/mL Hygromycin B.
(§2) For high throughput measurement of agonist-evoked increases in intracellular calcium, CHO-K1 cells stably expressing muscarinic receptors were plated in growth medium lacking G418 and hygromycin at 15,000 cells/20 μL/well in Greiner 384-well black-walled, tissue culture (TC)-treated, clear-bottom plates (VWR). Cells were incubated overnight at 37° C. and 5% CO2. The next day, cells were washed using an ELX 405 (BioTek) with four washes (80 μL) of assay buffer then aspirated to 20 μL. Next, 20 μL of 16 μM Fluo-4/acetoxymethyl ester (Invitrogen, Carlsbad, Calif.) prepared as a 2.3 mM stock in DMSO and mixed in a 1:1 ratio with 10% (w/v) Pluronic F-127 and diluted in assay buffer was added to the wells and the cell plates were incubated for 50 min at 37° C. and 5% CO2. Dye was removed by washing with the ELX 405 (four 80 μL washes of assay buffer) then aspirated to 20 μL. Compound master plates were formatted in an 11 point CRC format (1:3 dilutions) in 100% DMSO with a starting concentration of 10 mM using the BRAVO liquid handler (Agilent). Test compound CRCs were then transferred to daughter plates (240 nL) using the Echo acoustic plate reformatter (Labcyte, Sunnyvale, Calif.) and then diluted into assay buffer (40 μL) to a 2× stock using a Thermo Fisher Combi (Thermo Fisher Scientific, Waltham, Mass.).
(§3) Calcium flux was measured using the Functional Drug Screening System (FDSS) 6000 (Hamamatsu Corporation, Tokyo, Japan) as an increase in the fluorescent static ratio. Compounds were applied to cells (20 μL, 2×) using the automated system of the FDSS 6000 at 4 s into the 300 s protocol and the data were collected at 1 Hz. At 144 s into the 300 s protocol, 10 μL of an EC20 concentration of the muscarinic receptor agonist acetylcholine was added (5×), followed by the addition of 12 μL an EC80 concentration of acetylcholine at the 230 s time point (5×). Agonist activity was analyzed as a concentration-dependent increase in calcium mobilization upon compound addition. Emax values for agonist activity are expressed relative to the maximum for acetylcholine. Positive allosteric modulator activity was analyzed as a concentration-dependent increase in the EC20 acetylcholine response. Antagonist activity was analyzed as a concentration-dependent decrease in the EC80 acetylcholine response. Concentration-response curves were generated using a four-parameter logistical equation in XLfit curve fitting software (IDBS, Bridgewater, N.J.) for Excel (Microsoft, Redmond, Wash.) or Prism (GraphPad Software, Inc., San Diego, Calif.).

human mAChR M1 [2] = biological target: T1, human mAChR M1; test: mAChR M1 cell-based functional assay (calcium mobilization), agonist activity upon compound addition alone; conditions: CHO-K1 cells expressing hM1; for EC50: calcium mobilization upon compound addition, no acetylcholine; for Emax: compound alone, relative to the maximum for acetylcholine
Source text: as §1, §2, §3

SMILES	Emax (human mAChR M1 [1])	EC50 (human mAChR M1 [2])	Emax (human mAChR M1 [2])	EC50 (human mAChR M1 [1])
Cn1cc(-c2ccc(Cc3cc(C(=O)NC4CCOCC4)nc(-n4cccn4)c3)cn2)cn1 [Compound 26, 4-((6-(1-methyl-1H-pyrazol-4-yl)pyridin-3-yl)methyl)-6-(1H-pyrazol-1-yl)-N-(tetrahydro-2H-pyran-4-yl)picolinamide]	47%	> 10 µM	5%	–
Cc1c(Cc2ccc(-c3ccn(C)n3)cc2)cc(C(=O)N[C@H]2CCCC[C@@H]2O)nc1-c1ccn(C)n1 [Compound 10, N-((1S,2S)-2-hydroxycyclohexyl)-5-methyl-6-(1-methyl-1H-pyrazol-3-yl)-4-(4-(1-methyl-1H-pyrazol-3-yl)benzyl)picolinamide]	86%	≥ 10 µM	13%	0.91 µM
Cc1nc(-c2ccc(Cc3cc(C(=O)N[C@H]4CCC[C@@H]4O)nc(-n4cccn4)c3C)cc2)co1 [Compound 54, N-((1S,2S)-2-hydroxycyclopentyl)-5-methyl-4-(4-(2-methyloxazol-4-yl)benzyl)-6-(1H-pyrazol-1-yl)picolinamide]	52%	> 10 µM	< 5%	3.87 µM
Cc1c(Cc2ccc(-c3ccn(C)n3)cc2)cc(C(=O)NC2CCOCC2)nc1-n1cccn1 [Compound 42, 5-methyl-4-(4-(1-methyl-1H-pyrazol-3-yl)benzyl)-6-(1H-pyrazol-1-yl)-N-(tetrahydro-2H-pyran-4-yl)picolinamide]	83%	> 10 µM	< 5%	–
Cc1c(Cc2ccc(-c3cnn(C)c3)nc2)cc(C(=O)NC2CCOCC2)nc1-n1cccn1 [Compound 50, 5-methyl-4-((6-(1-methyl-1H-pyrazol-4-yl)pyridin-3-yl)methyl)-6-(1H-pyrazol-1-yl)-N-(tetrahydro-2H-pyran-4-yl)picolinamide]	65%	> 10 µM	< 5%	–
Cn1ccc(-c2ccc(Cc3cc(C(=O)NC4CCOCC4)nc(-n4cccn4)c3)cc2)n1 [Compound 30, 4-(4-(1-methyl-1H-pyrazol-3-yl)benzyl)-6-(1H-pyrazol-1-yl)-N-(tetrahydro-2H-pyran-4-yl)picolinamide]	65%	> 10 µM	< 5%	–
Cc1c(Cc2ccc(-c3ccn(C)n3)nc2)cc(C(=O)N[C@H]2CCCC[C@@H]2O)nc1-n1cccn1 [Compound 46, N-((1S,2S)-2-hydroxycyclohexyl)-5-methyl-4-((6-(1-methyl-1H-pyrazol-3-yl)pyridin-3-yl)methyl)-6-(1H-pyrazol-1-yl)picolinamide]	85%	≥ 10 µM	28%	0.881 µM
Cc1c(Cc2ccc(-c3ccn(C)n3)cc2)cc(C(=O)N[C@H]2CCCC[C@@H]2O)nc1-n1cccn1 [Compound 41, N-((1S,2S)-2-hydroxycyclohexyl)-5-methyl-4-(4-(1-methyl-1H-pyrazol-3-yl)benzyl)-6-(1H-pyrazol-1-yl)picolinamide]	79%	7.78 µM	26%	0.307 µM
Cc1c(Cc2ccc(-n3cccn3)cc2)cc(C(=O)NC[C@H]2CCCO2)nc1-c1ccn(C)n1 [Compound 63, (R)-4-(4-(1H-pyrazol-1-yl)benzyl)-5-methyl-6-(1-methyl-1H-pyrazol-3-yl)-N-((tetrahydrofuran-2-yl)methyl)picolinamide]	57%	> 10 µM	< 5%	–
Cc1c(Cc2ccc(-c3ccn(C)n3)cc2)cc(C(=O)NCC2CCOCC2)nc1-c1ccn(C)n1 [Compound 14, 5-methyl-6-(1-methyl-1H-pyrazol-3-yl)-4-(4-(1-methyl-1H-pyrazol-3-yl)benzyl)-N-((tetrahydro-2H-pyran-4-yl)methyl)picolinamide]	74%	> 10 µM	< 5%	–
Cc1c(Cc2ccc(-c3cnn(C)c3)nc2)cc(C(=O)N[C@H]2CCCC[C@@H]2O)nc1-n1cccn1 [Compound 47, N-((1S,2S)-2-hydroxycyclohexyl)-5-methyl-4-((6-(1-methyl-1H-pyrazol-4-yl)pyridin-3-yl)methyl)-6-(1H-pyrazol-1-yl)picolinamide]	85%	9.08 µM	29%	0.675 µM
Cc1ccc(Cc2cc(C(=O)N[C@H]3CCOC[C@@H]3O)nc(-c3ccn(C)n3)c2C)cn1 [Compound 65, N-((3R,4S)-3-hydroxytetrahydro-2H-pyran-4-yl)-5-methyl-6-(1-methyl-1H-pyrazol-3-yl)-4-((6-methylpyridin-3-yl)methyl)picolinamide]	71%	> 10 µM	< 5%	–
Cc1nc(-c2ccc(Cc3cc(C(=O)N[C@H]4CCOC[C@@H]4O)nc(-n4cccn4)c3C)cc2)co1 [Compound 45, N-((3R,4S)-3-hydroxytetrahydro-2H-pyran-4-yl)-5-methyl-4-(4-(2-methyloxazol-4-yl)benzyl)-6-(1H-pyrazol-1-yl)picolinamide]	47%	> 10 µM	8%	0.863 µM
Cn1cc(-c2cc(Cc3ccc(-c4ccn(C)n4)cc3)cc(C(=O)N[C@H]3CCCC[C@@H]3O)n2)cn1 [Compound 40, N-((1S,2S)-2-hydroxycyclohexyl)-4-(4-(1-methyl-1H-pyrazol-3-yl)benzyl)-6-(1-methyl-1H-pyrazol-4-yl)picolinamide]	57%	> 10 µM	< 5%	9.44 µM
Cn1cc(-c2ccc(Cc3cc(C(=O)N[C@H]4CCOC[C@@H]4O)nc(-n4cccn4)c3)cn2)cn1 [Compound 18, N-((3R,4S)-3-hydroxytetrahydro-2H-pyran-4-yl)-4-((6-(1-methyl-1H-pyrazol-4-yl)pyridin-3-yl)methyl)-6-(1H-pyrazol-1-yl)picolinamide]	85%	≥ 10 µM	13%	1.02 µM
Cc1nc(-c2ccc(Cc3cc(C(=O)N[C@H]4CC[C@@H]4O)nc(-n4cccn4)c3)cc2)co1 [Compound 25, N-((1S,2S)-2-hydroxycyclobutyl)-4-(4-(2-methyloxazol-4-yl)benzyl)-6-(1H-pyrazol-1-yl)picolinamide]	40%	> 10 µM	< 5%	–
Cc1c(Cc2ccc(-c3ccn(C)n3)cc2)cc(C(=O)NC2CCOCC2(C)C)nc1-c1ccn(C)n1 (stereo not drawn) [Compound 17, N-(3,3-dimethyltetrahydro-2H-pyran-4-yl)-5-methyl-6-(1-methyl-1H-pyrazol-3-yl)-4-(4-(1-methyl-1H-pyrazol-3-yl)benzyl)picolinamide]	86%	> 10 µM	< 5%	2.26 µM
